Measurements from patent publication US20120077735A1, “PROPHYLACTIC AGENT FOR RENAL FAILURE” (priority 2007, published 2012).

Columns and labels:
male Wistar rats [1] = assay: Test 2: rat renal pathologic state (glomerular lesions, renal artery wall at the hilum and small- and mid-sized artery wall thickening) in rats given L-NAME; type: in vivo; details: drinking water with L-NAME 1 g/L plus IPP 0.3 g/L or Enalapril 0.5 mg/L, eight weeks; for With pathologic state / Without pathologic state: pathologic state = score not less than 1 in all three items
Procedure: The tripeptide Ile Pro Pro (IPP) was also tested for renal pathologic state, in order to evaluate its effect to suppress kidney glomerular disease and renal arteriosclerosis.
The test was carried out using three groups of male Wistar rats of seven weeks old (Japan SLC, Inc.), each of which group consist of 9 to 12 rats. After habituation breeding for a week, drinking water with L-NAME (manufactured by Sigma) being dissolved at a concentration of 1 g/L; drinking water with L-NAME and IPP being dissolved at a concentration of 1 g/L and 0.3 g/L respectively; drinking water with L-NAME and angiotensin converting enzyme (ACE) inhibitor, Enalapril at a concentration of 1 g/L and 0.5 mg/L respectively, were supplied ad libitum for eight weeks. The dose of Enalapril was determined such that its activity to inhibit ACE was equivalent to the activity of IPP to inhibit ACE.
The rats were sacrificed by exsanguination under diethylether anesthesia. The kidney was enucleated and then fixed with 10% neutral buffered formalin solution. Tissue samples were prepared from the fixed kidney by excising in parallel with the minor axis such that the tip of renal papilla was included. The specimen were embedded in paraffin and cut into thin sections with a thickness of 2.0 to 2.5 μm using a microtome. Two to five sections per rat were prepared. The thin sliced sections were subjected to hematoxylin eosin staining or periodic acid methenamine silver staining (PAM staining). In accordance with a method by Foglieni et al. (Chiara Foglieni, et al., “Protective effect of EDTA preadministration on renal ischemia” BMC Nephrology 2006, 7:5, [online], Mar. 15, 2006, BioMed Central Ltd, http://www.biomedcentral.com/bmcnephrol/), a histopathological examination was, with keeping the name of each sample concealed, carried out by a pathologist who was not involved in the test.
Under a microscopic observation, the glomerulus that atrophic lesions, deterioration of the glomerulus, glomerulosclerosis, alteration of Bowman's capsule or the like was observed was defined as the glomerulus with lesions, in accordance with the definition of the glomerular lesions described in a book by Enomoto et al. (edited by Makoto Enomoto, Yuzo Hayashi, and Hisako Tanaka, “Pathological tissues of experimental animals”, Softscience, pages 380-396). The atrophic lesion refers to conditions where the size ratio between the glomerulus and Bowman's capsule is altered due to glomerular atrophy. The deterioration of the glomerulus refers to conditions where the blood capillary cavity of the glomerulus is disappeared and glomerular functions are lost. The glomerulosclerosis refers to conditions where increased mesangial matrix was observed without accompanying hyperplasia of collagen fiber. The alteration of Bowman's capsule refers to conditions where hypertrophy of epithelial cells and uptake of lipid droplets and/or protein particles are observed. In one whole section, the frequency of occurrence of these glomerular lesions was scored from 0 to 3, and a score was determined for each individual rat.
Score 0: A case where one or two glomerular lesions owing to physiologic alterations were observed.
Score 1: A case where one or two focal regions in the glomerulus were observed, which regions were a limited and small range.
Score 2: A case where two to four focal regions in the glomerulus were observed, which regions were a middle sized range.
The focal regions herein indicate that a plural of lesions are, on the basis of pathological findings, observed in a certain area in one whole section.
The thickening of the renal artery wall at the hilum existing in the renal medulla and the thickening of the small and middle artery wall existing in the renal cortex were also evaluated by a tissue pathological test in the same manner as the observation of the glomerular lesions. […]

male Wistar rats [2] = assay: Test 1: thickening of the small- and mid-sized renal artery wall in rats given L-NAME; type: in vivo, rat; details: drinking water with L-NAME 1 g/L plus VPP 0.3 g/L or Enalapril 0.5 mg/L, ad libitum for eight weeks; compared with L-NAME alone; FIG. 1
Procedure: (§1) In order to evaluate the effect of the tripeptide Val Pro Pro (VPP) to suppress kidney glomerular disease and renal arteriosclerosis, a test on the frequency of occurrence of renal glomerular lesions and the degree of thickening of the small and middle renal artrey wall was carried out.
(§2) The test was carried out using three groups of male Wistar rats of seven weeks old (Japan SLC, Inc.), each of which group consist of 9 to 12 rats. […] The dose of Enalapril was determined such that its activity to inhibit ACE was equivalent to VPP's. […]
The thickening of the small-, and mid -sized artery wall existing in the renal cortex was also evaluated by a tissue pathological test in the same manner as the observation of the glomerular lesions. […] The thickness of the small- and mid-sized artery wall was scored from 0 to 3 as described below and a score for each individual rat was determined. The determined score for each individual rat was subjected to statistical analysis and a score for each group was determined. […]

male Wistar rats [3] = assay: Test 1: frequency of occurrence of renal glomerular lesions in rats given L-NAME; type: in vivo, rat; details: drinking water with L-NAME 1 g/L plus VPP 0.3 g/L or Enalapril 0.5 mg/L, ad libitum for eight weeks; compared with L-NAME alone; FIG. 2
Procedure: as §1, §2
Under a microscopic observation, the glomerulus that atrophic lesions, deterioration of the glomerulus, glomerulosclerosis, alteration of Bowman's capsule or the like was observed was defined as the glomerulus with lesions, in accordance with the definition of the glomerular lesions described in a book by Enomoto et al. (edited by Makoto Enomoto, Yuzo Hayashi, and Hisako Tanaka, “Pathological tissues of experimental animals”, Softscience, pages 380-396). […] In one whole section, the frequency of occurrence of these glomerular lesions was scored from 0 to 3, and a score was determined for each individual rat. The thus determined score for each individual rat was subjected to statistical analysis and a score for each group was determined. […]

Compound	onset of the pathologic state of the glomerulus and the renal artery (result in words) (male Wistar rats [1])	With pathologic state (male Wistar rats [1]) [rats]	Without pathologic state (male Wistar rats [1]) [rats]	degree of thickening of the small- and mid-sized artery wall (score 0 to 3) (male Wistar rats [2])	frequency of occurrence of the glomerular lesions (score 0 to 3) (male Wistar rats [3])
Ile Pro Pro [IPP]	suppressed the onset of the pathologic state	0	9	–	–
CCOC(=O)[C@H](CCc1ccccc1)N[C@@H](C)C(=O)N1CCC[C@H]1C(=O)O [Enalapril]	did not exhibit such an effect	2	7	did not show the suppressive effect	did not show the suppressive effect
Val Pro Pro [VPP]	–	–	–	decrease in the degree of thickening	suppression of the frequency of occurrence of the glomerular lesions
